What all share (type): cell-based
For data set [1], the system named is all human cancer cell lines successfully tested. In words: NCI screen mean graph midpoint (MGM) for growth inhibition. The method, boiled down:
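NCI60 panel cells exposed to compound at 100, 10, 1, 0.1 and 0.01 μM for 48 h, then sulforhodamine B staining. Percentage growth versus control plotted against log concentration; MGM is the midpoint across all lines tested.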

A further data set relates to melanoma UACC-62. In words: COMPARE screening (NCI human cancer cell line screen), cytotoxicity GI50. In outline: (§1)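 Five tenfold concentrations, 100 down to 0.01 μM, are applied for 48 h; growth is measured by sulforhodamine B absorbance against control.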
The next data set relates to CNS SF-539. The data set is described as above. The method, boiled down:
as §1

In the next data set the test system is colon HCT-116. The data set is described as above. The method, boiled down: as §1
The subject of another data set is renal SN12C. The data set is described as above. The method, boiled down:
as §1

The test system of another data set is lung HOP-62. The data set is described as above. In outline:
as §1

Another data set deals with ovarian OVCAR-3. The data set is described as above. In outline: as §1
A further data set relates to prostate DU-145. The data set is described as above. The method, boiled down: as §1
Another data set relates to breast MDA-MB-435. The description is as above.
Where [2] appears, read: Table 1, average GI50 of all cell lines tested (approximately 55), test range 10^−8 to 10^−4 molar.
Setting [3] is: all human cancer cell lines successfully tested.
Where [4] appears, read: melanoma UACC-62, concentration corresponding to 50% growth inhibition, read-out: cytotoxicity (GI50 in μM) melanoma UACC-62.
[5] abbreviates: CNS SF-539, concentration corresponding to 50% growth inhibition, read-out: cytotoxicity (GI50 in μM) CNS SF-539.
Where [6] appears, read: colon HCT-116, concentration corresponding to 50% growth inhibition, read-out: cytotoxicity (GI50 in μM) colon HCT-116.
Setting [7] is: renal SN12C, concentration corresponding to 50% growth inhibition, read-out: cytotoxicity (GI50 in μM) renal SN12C.
Setting [8] is: lung HOP-62, concentration corresponding to 50% growth inhibition, read-out: cytotoxicity (GI50 in μM) lung HOP-62.
The mark [9] stands for this setting: ovarian OVCAR-3, concentration corresponding to 50% growth inhibition, read-out: cytotoxicity (GI50 in μM) ovarian OVCAR-3.
The mark [10] stands for this setting: prostate DU-145, concentration corresponding to 50% growth inhibition, read-out: cytotoxicity (GI50 in μM) prostate DU-145.
[11] abbreviates: breast MDA-MB-435, concentration corresponding to 50% growth inhibition, read-out: cytotoxicity (GI50 in μM) breast MDA-MB-435.

Read-outs that look alike come from different tables or passages of the source.

Description for breast MDA-MB-435: COMPARE screening. The compounds described herein were examined for antiproliferative activity against the human cancer cell lines in the National Cancer Institute screen (COMPARE screening), in which the activity of each compound was evaluated with approximately 55 different cancer cell lines of diverse tumor origins. […] Therefore, the MGM value represents an overall assessment of toxicity of the compound across numerous cell lines.

The GI50 is the concentration at which growth is held to half of that of the control. Regarding `Cl.NCCCCCCn1c2c(c3ccccc3c1=O)C(=O)c1ccccc1-2` [Compound 5ap, 6-(6-Aminohexyl)-5,6-dihydro-5,11-diketo-11H-indeno[1,2-c]isoquinoline Hydrochloride], the MGM (mean GI50 across cell lines) in data set [1] (setting [2]) worked out at 1.32 µM. The 50% growth inhibitory concentration (GI50) in the data set on melanoma UACC-62 (Homo sapiens, UACC-62, read-out: cytotoxicity (GI50) melanoma UACC-62) amounted to 1.62 µM; in the data set on CNS SF-539 (Homo sapiens, CNSSF-539, read-out: cytotoxicity (GI50) CNS SF-539), 1.23 µM; in the data set with colon HCT-116 (Homo sapiens, HCT-116, read-out: cytotoxicity (GI50) colon HCT-116), 0.912 µM; in the data set with renal SN12C (Homo sapiens, SN12C, read-out: cytotoxicity (GI50) renal SN12C), 1.32 µM; in the data set on lung HOP-62 (Homo sapiens, HOP-62, read-out: cytotoxicity (GI50) lung HOP-62), 1.29 µM; with ovarian OVCAR-3 (Homo sapiens, OVCAR-3, read-out: cytotoxicity (GI50) ovarian OVCAR-3), 2 µM. For the same compound, the GI50 in the data set with prostate DU-145 (Homo sapiens, DU-145, read-out: cytotoxicity (GI50) prostate DU-145) was 0.603 µM; with breast MDA-MB-435 (Homo sapiens, MDA-MB-435, read-out: cytotoxicity (GI50) breast MDA-MB-435), 2.04 µM.
`COc1ccc2c(c1)C(=O)c1c-2n(CCCN=[N+]=[N-])c(=O)c2ccccc12` [Compound 5bf] displayed an MGM (mean GI50 across cell lines) in [1] (setting [2]) of 38.9 µM. The GI50 in the data set with melanoma UACC-62 was 75.9 µM; in the data set on CNS SF-539, 44.7 µM; with colon HCT-116, 26.9 µM; with renal SN12C, more than 100 µM; in the data set with lung HOP-62 it was 33.9 µM; in the data set on ovarian OVCAR-3, 52.5 µM. For the same compound, the GI50 stood at 61.7 µM in the data set on prostate DU-145 and 64.6 µM in the data set on breast MDA-MB-435.
For the compound `COc1cc2c3c(n(CCN4CCOCC4)c(=O)c2cc1OC)-c1ccccc1C3=O` [Compound 5h], the MGM (mean GI50 across cell lines) in [1] (setting [2]) came to 741 µM. Also, the GI50 with melanoma UACC-62 was 56.2 µM; in the data set with CNS SF-539, more than 100 µM; in the data set on colon HCT-116 it was 60.3 µM; with renal SN12C it was more than 100 µM; with lung HOP-62 it was 89.1 µM; in the data set with ovarian OVCAR-3, more than 100 µM. In addition, the GI50 with prostate DU-145 and in the data set on breast MDA-MB-435 was more than 100 µM each time.
Consider `O=C(O)C(F)(F)F.O=C(O)C(F)(F)F.O=C1c2ccccc2-c2c1c1ccc([N+](=O)[O-])cc1c(=O)n2CCCNCCCNCCCn1c2c(c3ccc([N+](=O)[O-])cc3c1=O)C(=O)c1ccccc1-2` [Compound 14n, Bis-1,3-{(5,6-dihydro-5,1-diketo-3-nitro-11H-indeno[1,2-c]isoquinoline)-6-propylamino}propane Bis{trifluoroacetate)], for which, in [1] (setting [3]), the “MGM (mean graph midpoint for growth inhibition)” value was found to be 1.50 ± 0.24 µM. Besides, the GI50 amounted to 1.78 µM in the data set on melanoma UACC-62 (setting [4]); 1.17 µM in the data set with CNS SF-539 (setting [5]); 1.45 µM with colon HCT-116 (setting [6]); 1.17 µM in the data set with renal SN12C (setting [7]); 3.02 µM in the data set with lung HOP-62 (setting [8]); 2.29 µM in the data set with ovarian OVCAR-3 (setting [9]). The values for the GI50 in the data set with prostate DU-145 (setting [10]) and with breast MDA-MB-435 (setting [11]) were 0.912 µM and 3.89 µM, respectively.
Turning to `COc1ccc2c(c1)C(=O)c1c-2n(CCCn2ccnc2)c(=O)c2cc([N+](=O)[O-])ccc12` [Compound 5br], the “MGM (mean graph midpoint for growth inhibition)” value in data set [1] (setting [2]) was determined as 0.019 ± 0.004 µM. The GI50 in the data set with melanoma UACC-62 is less than 0.01 µM; with CNS SF-539 it was less than 0.01 µM; in the data set with colon HCT-116 it was less than 0.01 µM; in the data set with renal SN12C, less than 0.01 µM; in the data set on lung HOP-62, less than 0.01 µM; in the data set on ovarian OVCAR-3, 0.02 µM. Further, the 50% growth inhibitory concentration (GI50) in the data set on prostate DU-145 and in the data set on breast MDA-MB-435 was less than 0.01 µM throughout.
On to `O=C1c2ccccc2-c2c1c1ccccc1c(=O)n2CCCNCCCn1c2c(c3ccccc3c1=O)C(=O)c1ccccc1-2` [Compound 12c, Bis{(5,6-dihydro-5,11-diketo-11H-indeno[1,2-c]isoquinoline)-6-propyl}amine], for which the “MGM (mean graph midpoint for growth inhibition)” value in data set [1] (setting [3]) was determined as 4.28 ± 1.89 µM. The GI50 in the data set on melanoma UACC-62 was 6.61 µM; in the data set with CNS SF-539 it was 3.63 µM; in the data set on colon HCT-116 it was 0.55 µM; in the data set on renal SN12C, 1.55 µM; in the data set with lung HOP-62 it was 0.794 µM; in the data set on ovarian OVCAR-3, 2.95 µM. In addition, the GI50 was found to be 1 µM in the data set with prostate DU-145 and 8.91 µM in the data set on breast MDA-MB-435.
With `CC(C)(C)OC(=O)NCCCCCCCCCCCn1c2c(c3ccccc3c1=O)C(=O)c1ccccc1-2` [Compound 5aj, 6-(11′-tert-BOC-Anminoundecyl)-5,6-dihydro-5,11-dioxo-11H-indeno[1,2-c]isoquinoline], the “MGM (mean graph midpoint for growth inhibition)” value in data set [1] (setting [2]) was found to be 42.6 ± 5.35 µM. Moreover, the GI50 with melanoma UACC-62 is 24 µM; with CNS SF-539, 29.5 µM; in the data set with colon HCT-116, 35.5 µM; in the data set with renal SN12C, more than 100 µM; in the data set with lung HOP-62, 20.9 µM; in the data set on ovarian OVCAR-3, 70.8 µM. Moreover, the GI50 with prostate DU-145 was 91.2 µM; in the data set with breast MDA-MB-435 it was more than 100 µM.
`CC(C)(C)OC(=O)N(CCCCN(CCCn1c2c(c3ccccc3c1=O)C(=O)c1ccccc1-2)C(=O)OC(C)(C)C)CCCn1c2c(c3ccccc3c1=O)C(=O)c1ccccc1-2` [Compound 13d, Bis-1,4-{(5,6-dihydro-5,11-diketo-11H-indeno[1,2-c]isoquinoline)-(6-propyl-tert-BOCamino)}butane] had an MGM (mean GI50 across cell lines) in [1] (setting [3]) of 35.5 µM. Besides, the GI50 was determined as 93.3 µM in the data set on melanoma UACC-62 (setting [4]); 8.13 µM in the data set with CNS SF-539 (setting [5]); 1.91 µM with colon HCT-116 (setting [6]); 36.3 µM with renal SN12C (setting [7]); 11 µM with lung HOP-62 (setting [8]); 69.2 µM in the data set on ovarian OVCAR-3 (setting [9]). The GI50 amounted to 47.9 µM with prostate DU-145 (setting [10]) and 69.2 µM in the data set with breast MDA-MB-435 (setting [11]).
On to `COc1ccc2c(c1)C(=O)c1c-2n(CCCN(C)C)c(=O)c2cc([N+](=O)[O-])ccc12` [Compound 5bp], for which the “MGM (mean graph midpoint for growth inhibition)” value in [1] (setting [2]) was 0.020 ± 0.001 µM. For the same compound, the GI50 in the data set on melanoma UACC-62 is less than 0.01 µM; with CNS SF-539, less than 0.01 µM; in the data set on colon HCT-116, less than 0.01 µM; in the data set with renal SN12C it was less than 0.01 µM; with lung HOP-62 it was less than 0.01 µM; with ovarian OVCAR-3, 0.028 µM. The GI50 in the data set with prostate DU-145 and in the data set on breast MDA-MB-435 was less than 0.01 µM throughout.
Consider `O=C1c2ccccc2-c2c1c1ccccc1c(=O)n2CCNCCO` [Compound S-2, oracin, reference compound], for which, in [1] (setting [2]), the “MGM (mean graph midpoint for growth inhibition)” value came to 1.90 ± 0.80 µM. Besides, the 50% growth inhibitory concentration (GI50) in the data set on melanoma UACC-62 amounted to 1.42 µM; in the data set with CNS SF-539 it was 1.65 µM; in the data set on colon HCT-116 it was 1.12 µM; in the data set with renal SN12C, 0.95 µM; in the data set on lung HOP-62 it was 1.62 µM; in the data set with ovarian OVCAR-3, 3.85 µM. The results for the GI50 in the data set on prostate DU-145 and in the data set on breast MDA-MB-435 were 1.28 µM and 2.56 µM, respectively.
For `O=C(O)C(F)(F)F.O=C(O)C(F)(F)F.O=C1c2ccccc2-c2c1c1ccccc1c(=O)n2CCCN1CCN(CCCn2c3c(c4ccccc4c2=O)C(=O)c2ccccc2-3)CC1` [Compound 14f, Bis-1,4-{(5,6-dihydro-5,11-diketo-11H-indeno[1,2-c]isoquinoline)-6-propyl}piperazine Bis(trifluoroacetate)], in [1] (setting [3]), the “MGM (mean graph midpoint for growth inhibition)” value worked out at 44.8 ± 2.05 µM. Besides, the GI50 in the data set on melanoma UACC-62 is more than 100 µM; in the data set on CNS SF-539, more than 100 µM; in the data set on colon HCT-116 it was 35.5 µM; in the data set with renal SN12C, 15.5 µM; with lung HOP-62, 12.9 µM; in the data set on ovarian OVCAR-3, more than 100 µM. For the same compound, the GI50 with prostate DU-145 is 24 µM; with breast MDA-MB-435, more than 100 µM.
Consider `COc1ccc2c(c1)C(=O)c1c-2n(CCCNCCO)c(=O)c2ccccc12.Cl` [Compound 5bn], for which, in data set [1] (setting [2]), the “MGM (mean graph midpoint for growth inhibition)” value came to 0.124 ± 0.014 µM. Moreover, the GI50 in the data set with melanoma UACC-62 is 0.55 µM; in the data set on CNS SF-539, 0.112 µM; with colon HCT-116, 0.044 µM; in the data set on renal SN12C, 0.158 µM; with lung HOP-62 it was 0.026 µM; in the data set on ovarian OVCAR-3, 0.417 µM. The GI50 in the data set with prostate DU-145 is 0.055 µM; in the data set on breast MDA-MB-435, 0.389 µM.
With `Cl.NCCCCn1c2c(c3ccccc3c1=O)C(=O)c1ccccc1-2` [Compound 5an], in data set [1] (setting [2]), the “MGM (mean graph midpoint for growth inhibition)” value was 0.16 ± 0.01 µM. The GI50 in the data set on melanoma UACC-62 came to 0.05 µM; in the data set with CNS SF-539, 0.1 µM; in the data set on colon HCT-116 it was 0.1 µM; with renal SN12C, 0.04 µM; in the data set with lung HOP-62 it was 0.08 µM; in the data set on ovarian OVCAR-3, 0.52 µM. Besides, the GI50 in the data set on prostate DU-145 worked out at 0.01 µM; with breast MDA-MB-435, 0.84 µM.

The values above are taken from patent US9796753B2, “N-substituted indenoisoquinolines and syntheses thereof” (Purdue Research Foundation, priority 2005, dated 2017).
